{
  "source": "patent US20260256799A1",
  "about": "“INHIBITORS FOR TREATING SOLID TUMOURS” (UNIVERSITY OF SOUTHAMPTON, priority 2023, published 2026)",
  "test_system": "MLF",
  "assay": "TGF-β1-induced myofibroblast differentiation of mouse lung fibroblasts",
  "assay_type": "cell-based",
  "description": "Human NSCLC cell line H441, HNSCC SCC25, murine cancer cell line TC-1 (lung), MC38 (colon) and human fetal foreskin fibroblasts HFFF2 were purchased from European Collection of Cell Cultures (Public Health England) or ATCC; HNSCC 5PT [32] were provided by l. Mackenzie (Queen Mary University of London, UK). HEK-293T cells and IMR90 lung fibroblasts were provided by Jesus Gil (Imperial College, London, UK). SCC25 were grown in Ham's F12:DMEM (1:1 ratio) medium with 10% FBS (Calbiochem) and 292 μg/ml L-Glutamine. 5PT were cultured in keratinocyte growth medium. HEK-293T, H441, MC38, HFFF2, IMR90 and primary fibroblasts were grown in DMEM supplemented with 10% FBS and 292 μg/ml L-Glutamine. Primary fibroblasts were isolated as previously used at early passage (p1-10). C57BL/6 murine normal lung and colon fibroblasts (MLF and MCF respectively) were grown at 3% oxygen. TC-1 were cultured in RPMI supplemented with 10% FBS and 292 μg/ml L-Glutamine. All cell cultures were routinely tested for mycoplasma contamination. All cells were cultured using standard cell culture plates/flasks (Corning). HFFF2 or IMR90 cells were transfected with 25 μM On-Target pool siRNA (Thermo Scientific/Dharmacon) using Oligofectamine reagent (Life Technologies) as described. Stable knockdown was performed using retro/lentiviral mediated transduction of shRNA plasmids, as previously described followed by cell selection using 1 μg/ml puromycin for 5-7 days. NOX4-inducible HEK-293 cells (kindly provided by Vincent Jaquet) were treated with 1 μg/ml doxycycline. […]\n5×10^3 HFFF2 were plated on permanox chamber slides (Thermo Scientific) and treated as described in the figure legends. […] Images were taken using an Olympus IX81 fluorescence microscope and Xcellence program. DNA Damage foci were quantified from at least 8 non-overlapping FoV with ~300 cells in total per condition. […] SMA and Collagen 1A1 quantification was performed using Fiji. […]",
  "key": {"[1]": {"details": "AZD0156 0.5 μM + TGF-β1 for a week, Q-RT-PCR"}},
  "data": [
    {"smiles": "CN(C)CCCOc1ccc(-c2ccc3ncc4c(c3c2)n(C2CCOCC2)c(=O)n4C)cn1", "note": "[AZD0156]", "values": [
      {"measurement": "myofibroblast differentiation in vitro", "setting": "AZD0156 0.5 μM + TGF-β1, 72 hours (Western) or 7 days (Collagen1, Fibronectin)", "value": "suppressed"},
      {"measurement": "effect on iCAF genes", "setting": "[1]", "value": "gene-specific and generally non-significant"},
      {"measurement": "myoCAF genes expression", "setting": "[1]", "value": "significantly down-regulated"}
    ]}
  ]
}
